The values that follow come from ChEMBL document CHEMBL3877297, “Chemical exploration of 4-(4-fluorobenzyl)piperidine fragment for the development of new tyrosinase inhibitors” (Eur J Med Chem, 2017).

By IC50 is commonly meant the concentration at which inhibition is half-maximal.

The source made the active and inactive calls. The calls are words filed in the database; no cut-off is given here.

The target of assay [1] is T1, Mushroom tyrosinase (Agaricus bisporus, UniProt O42713+Q00024+C7FF04+C7FF05). Put plainly: Inhibition of mushroom tyrosinase assessed as reduction in formation of dopachrome using L-DOPA as substrate.
Assay [2] addresses T1, Mushroom tyrosinase. As to the kind of experiment: Inhibition of mushroom tyrosinase diphenolase activity using L-DOPA as substrate measured after 5 mins.
The target in assay [3] is T1, Mushroom tyrosinase. As to the kind of experiment: Inhibition of mushroom tyrosinase monophenolase activity using L-tyrosine as substrate measured after 30 mins.
The target of assay [4] is T2, Mushroom tyrosinase (Agaricus bisporus) (UniProt O42713+Q00024+C7FF04+C7FF05). As to the kind of experiment: Potency index, ratio of 3-(4-benzylpiperidin-1-yl)-1-(1H-indol-3-yl)propan-1-one IC50 to compound IC50 for mushroom tyrosinase monophenolase activity.
Assay [5] has as its target T2, Mushroom tyrosinase (Agaricus bisporus). Put plainly: Potency index, ratio of 3-(4-benzylpiperidin-1-yl)-1-(1H-indol-3-yl)propan-1-one IC50 to compound IC50 for mushroom tyrosinase diphenolase activity.
Assay [6] shares this target. As to the kind of experiment: Non-competitive inhibition of mushroom tyrosinase diphenolase activity at 4 to 16 uM using varying levels of L-DOPA as substrate by Lineweaver-Burk plot analysis.
The target is the same in assay [7]. As to the kind of experiment: Non-competitive inhibition of mushroom tyrosinase diphenolase activity at 25 to 100 uM using varying levels of L-DOPA as substrate by Lineweaver-Burk plot analysis.
The target is the same in assay [8]. As to the kind of experiment: Mixed-type inhibition of mushroom tyrosinase diphenolase activity at 4 to 16 uM using varying levels of L-DOPA as substrate by Lineweaver-Burk plot analysis.

As to `COc1cccc2c1c(C(=O)C(=O)Nc1cn[nH]n1)cn2Cc1ccc(F)cc1`, the IC50 on Mushroom tyrosinase [1] came out at 372 µM.

For the compound `COc1ccc2[nH]cc(C(=O)CCN3CCC(Cc4ccccc4)CC3)c2c1`, the figures for the IC50 against Mushroom tyrosinase [2] and on Mushroom tyrosinase [3] were 197.45 µM and 25.78 µM, respectively. In addition, the Ratio IC50 in assay [4] stood at 7.

On to `COc1cc2[nH]cc(C(=O)CCN3CCC(Cc4ccccc4)CC3)c2cc1OC`, for which the results for the IC50 against Mushroom tyrosinase [2] and against Mushroom tyrosinase [3] were 133 µM and 57.24 µM, respectively.

For `O=C(CCN1CCC(Cc2ccc(F)cc2)CC1)c1c[nH]c2ccccc12`, the figures for the IC50 against Mushroom tyrosinase [2] and against Mushroom tyrosinase [3] were 8.82 µM and 9.45 µM, respectively. Further, the Ratio IC50 in assay [5] is under 35. For the same compound, the inhibition entry in assay [6] was “Active”.

Turning to `O=C(CCN1CCC(Cc2ccc(F)cc2)CC1)Nc1ccccc1`, the inhibition result in assay [7] was “Active”. The IC50 against Mushroom tyrosinase [2] came to 27.9 µM; on Mushroom tyrosinase [3] it was 28.85 µM.

As for `COc1ccc2c(C(=O)CCN3CCC(Cc4ccccc4)CC3)c[nH]c2c1`, the values for the IC50 against Mushroom tyrosinase [2] and against Mushroom tyrosinase [3] were 168.55 µM and 67.25 µM, respectively.

For `O=C(CCN1CCC(Cc2ccc(F)cc2)CC1)Nc1cc[nH]n1`, the half-maximal inhibitory concentration (IC50) is 39.58 µM against Mushroom tyrosinase [2] and 5.87 µM at Mushroom tyrosinase [3].

On to `O=C(CCN1CCC(Cc2ccc(F)cc2)CC1)NCc1ccccc1`, for which the IC50 at Mushroom tyrosinase [2] came out at 83 µM; on Mushroom tyrosinase [3] it was 13.98 µM.

`COc1cc2[nH]cc(C(=O)CCN3CCC(Cc4ccc(F)cc4)CC3)c2cc1OC`: the values for the IC50 against Mushroom tyrosinase [2] and at Mushroom tyrosinase [3] were 7.56 µM and 5.11 µM, respectively. Besides, in assay [5], the Ratio IC50 is under 35. Also, the inhibition entry in assay [8] was “Active”.

Take `CCN1CCC(Cc2ccc(F)cc2)CC1`: the IC50 was 116 µM at Mushroom tyrosinase [2] and 32.17 µM at Mushroom tyrosinase [3].

`O=C(CCN1CCC(Cc2ccc(F)cc2)CC1)n1cnc2ccccc21`: the IC50 at Mushroom tyrosinase [2] was 159.24 µM; at Mushroom tyrosinase [3] it was 113.34 µM.

In the case of `COc1cccc2c1c(C(=O)/C=C(\O)C(=O)O)cn2Cc1ccc(F)cc1`, the IC50 on Mushroom tyrosinase [1] was determined as 224 µM.

Consider `COc1ccc2c(C(=O)CCN3CCC(Cc4ccc(F)cc4)CC3)c[nH]c2c1`, for which the results for the IC50 against Mushroom tyrosinase [2] and on Mushroom tyrosinase [3] were 18.03 µM and 9.4 µM, respectively. Moreover, the Ratio IC50 in assay [5] was under 35. The inhibition result in assay [6] is “Active”.

For the compound `COc1ccc2[nH]cc(C(=O)CCN3CCC(Cc4ccc(F)cc4)CC3)c2c1`, the IC50 at Mushroom tyrosinase [2] is 14.15 µM; at Mushroom tyrosinase [3], 7.86 µM. For the same compound, in assay [5], the Ratio IC50 was under 35. The inhibition entry in assay [6] was “Active”.

Consider `O=C(CCN1CCC(Cc2ccccc2)CC1)c1c[nH]c2ccccc12`, for which the IC50 at Mushroom tyrosinase [2] was found to be 252 µM; against Mushroom tyrosinase [3] it was 175 µM.

In the case of `Cc1cc(NC(=O)CCN2CCC(Cc3ccc(F)cc3)CC2)on1`, the figures for the IC50 against Mushroom tyrosinase [2] and against Mushroom tyrosinase [3] were 110.95 µM and 28.55 µM, respectively.
